Reference: patent US10538487B2, “Sulfonylureas and related compounds and use of same” (priority 2015, dated 2020)
Values joined by “and” are separate entries in the source; they are usually repeats but may differ in a detail not shown here. Equal values may be shown once. Read-outs that look alike come from different tables or passages of the source.

Assay: Single dose pharmacokinetic study in mice (iv 4 mg/Kg, po 20 mg/Kg), plasma concentration post-dosing
Type: in vivo, mouse
Conditions: mouse
Experimental: This is advantageous leading to comparatively lower doses or less frequent administration. The procedure followed was: Male C57BL/6 mice were used at 7-9 weeks age with 3 animals per group. Mice were dosed with test compound using single intravenous bolus or oral gavage. Blood samples were taken via submandibular or saphenous vein for analysis of plasma concentrations of compound by LC-MS/MS at the following timepoints: IV (3 mice): 0.083, 0.25, 0.5, 1, 2, 4, 8 and 24 hours post dosing, PO (3 mice): 0.25, 0.5, 1, 2, 4, 8 and 24 hours post dosing. LC-MS/MS method for the quantitative determination of test compound in corresponding biological matrix was developed. […] The results are shown graphically in FIGS. 1A to 1C (MCC950) and FIGS. 2A to 2C (MCC7840).

[1] = IV 4 mg/Kg, individual mice M1-M3, 4 mg/kg
[2] = PO 20 mg/Kg, individual mice M4-M6, 20 mg/kg

## CC(C)(O)c1coc(S(=O)(=O)NC(=O)Nc2c3c(cc4c2CCC4)CCC3)c1 [MCC_000950_016, N-((1,2,3,5,6,7-hexahydro-s-indacen-4-yl)carbamoyl)-4-(2-hydroxypropan-2-yl)furan-2-sulfonamide, reference compound]
male, C57BL/6, mouse, plasma, po, 20 mg/kg, PO 20 mg/Kg, mean of 3 mice, read-out: AUC0-inf, Mean PO
  AUC0-inf: 126 µg·h/mL
male, C57BL/6, mouse, plasma, po, 20 mg/kg, PO 20 mg/Kg, mean of 3 mice, read-out: AUC0-last, Mean PO
  AUC(0-t): 125 µg·h/mL
male, C57BL/6, mouse, plasma, po, 20 mg/kg, PO 20 mg/Kg, mean of 3 mice, read-out: Cmax, Mean PO
  Cmax: 35000 ng/mL
male, C57BL/6, mouse, plasma, po, 20 mg/kg, PO 20 mg/Kg, mean of 3 mice, read-out: MRT0-inf, Mean PO
  MRT inf: 3.63 h
male, C57BL/6, mouse, plasma, po, 20 mg/kg, PO 20 mg/Kg, mean of 3 mice, read-out: MRT0-last, Mean PO
  MRT last: 3.6 h
male, C57BL/6, mouse, plasma, po, 20 mg/kg, PO 20 mg/Kg, mean of 3 mice, read-out: T1/2, Mean PO (converted)
  half-life: 2.39 h
male, C57BL/6, mouse, plasma, po, 20 mg/kg, PO 20 mg/Kg, mean of 3 mice, read-out: Tmax, Mean PO
  Tmax: 0.333 h
IV 4 mg/Kg, 5 min post dosing, individual mice M1-M3, 4 mg/kg
  Plasma concentration, IV Time 5 min: 17200 ng/mL and 17700 ng/mL
IV 4 mg/Kg, 0.250 h post dosing, individual mice M1-M3, 4 mg/kg
  Plasma concentration, IV Time 0.250 h: 10200 ng/mL and 12700 ng/mL
IV 4 mg/Kg, 0.500 h post dosing, individual mice M1-M3, 4 mg/kg
  Plasma concentration, IV Time 0.500 h: 9420 ng/mL and 10500 ng/mL
IV 4 mg/Kg, 1.00 h post dosing, individual mice M1-M3, 4 mg/kg
  Plasma concentration, IV Time 1.00 h: 7730 ng/mL and 8230 ng/mL
IV 4 mg/Kg, 2.00 h post dosing, individual mice M1-M3, 4 mg/kg
  Plasma concentration, IV Time 2.00 h: 6000 ng/mL and 5010 ng/mL
IV 4 mg/Kg, 4.00 h post dosing, individual mice M1-M3, 4 mg/kg
  Plasma concentration, IV Time 4.00 h: 2390 ng/mL and 2130 ng/mL
IV 4 mg/Kg, 8.00 h post dosing, individual mice M1-M3, 4 mg/kg
  Plasma concentration, IV Time 8.00 h: 843 ng/mL and 480 ng/mL
IV 4 mg/Kg, 24.0 h post dosing, individual mice M1-M3, 4 mg/kg
  Plasma concentration, IV Time 24.0 h: 2.33 ng/mL
IV 4 mg/Kg, individual mice M1-M3
  Tlast: 24.0 h
[1]
  AUC0-inf: 33.496 µg·h/mL and 30.758 µg·h/mL
  AUC0-last: 33.489 µg·h/mL and 30.751 µg·h/mL
  AUCExtra: 0.0226% and 0.0198% and 0.0224%
  AUMCExtra: 0.219% and 0.187% and 0.251%
  C0: 22332 ng/mL and 20894 ng/mL
  Cl: 1.99 mL/min/kg and 2.17 mL/min/kg
  MRT0-inf: 2.84 h and 2.41 h
  MRT0-last: 2.83 h and 2.40 h
  T1/2: 1.97 h and 2.05 h
  Vdss: 0.339 L/kg and 0.313 L/kg
IV 4 mg/Kg, mean of 3 mice
  AUCExtra, Mean IV: 0.0216%
  AUMCExtra, Mean IV: 0.219%
  C0, Mean IV: 21974 ng/mL
  Tlast, Mean IV: 24.0 h
PO 20 mg/Kg vs IV 4 mg/Kg, Mean PO
  bioavailability: 71.0%
PO 20 mg/Kg, 0.250 h post dosing, individual mice M4-M6, 20 mg/kg
  Plasma concentration, PO Time 0.250 h: 21900 ng/mL and 29000 ng/mL and 48900 ng/mL
PO 20 mg/Kg, 0.500 h post dosing, individual mice M4-M6, 20 mg/kg
  Plasma concentration, PO Time 0.500 h: 34100 ng/mL and 35800 ng/mL
PO 20 mg/Kg, 1.00 h post dosing, individual mice M4-M6, 20 mg/kg
  Plasma concentration, PO Time 1.00 h: 33700 ng/mL and 37000 ng/mL
PO 20 mg/Kg, 2.00 h post dosing, individual mice M4-M6, 20 mg/kg
  Plasma concentration, PO Time 2.00 h: 22500 ng/mL and 26200 ng/mL
PO 20 mg/Kg, 4.00 h post dosing, individual mice M4-M6, 20 mg/kg
  Plasma concentration, PO Time 4.00 h: 13000 ng/mL and 10500 ng/mL
PO 20 mg/Kg, 8.00 h post dosing, individual mice M4-M6, 20 mg/kg
  Plasma concentration, PO Time 8.00 h: 2360 ng/mL and 4670 ng/mL
PO 20 mg/Kg, 24.0 h post dosing, individual mice M4-M6, 20 mg/kg
  Plasma concentration, PO Time 24.0 h: 60.7 ng/mL and 17.4 ng/mL and 39.3 ng/mL
PO 20 mg/Kg, individual mice M4-M6
  Tlast: 24.0 h
[2]
  AUC0-inf: 123.452 µg·h/mL and 144.868 µg·h/mL
  AUC0-last: 123.399 µg·h/mL and 144.734 µg·h/mL
  AUCExtra: 0.216% and 0.0429% and 0.0929%
  AUMCExtra: 1.40% and 0.376% and 0.730%
  Cmax: 21900 ng/mL and 34100 ng/mL and 48900 ng/mL
  MRT0-last: 3.07 h and 3.47 h
  T1/2: 2.11 h and 2.37 h
  Tmax: 0.500 h
PO 20 mg/Kg, mean of 3 mice
  AUCExtra, Mean PO: 0.117%
  AUMCExtra, Mean PO: 0.835%
  Tlast, Mean PO: 24.0 h
